For series [1], the target named is CDK9/CycT1 (Homo sapiens, UniProt P50750). The series is described as follows: CDK9/CycT1 kinase assay. The format is biochemical.
Series [2] relates to CDK2/CycE. The series is described as follows: CDK2/CycE kinase assay. The format is biochemical, human. The following applies: ratio of IC50 values CDK2/CDK9, in-house assays.
Series [3] relates to HeLa cells. The series is described as follows: Proliferation assay HeLa. The following applies: Homo sapiens, 96 h, read-out: HeLa IC50. The format is cell-based.
Series [4] can be described thus: Metabolic stability in mouse liver microsomes. The format is in vitro ADME.
Series [5] can be described thus: Metabolic stability in rat liver microsomes. The conditions noted are these: rat, liver microsomes. The format is in vitro ADME.
The nature of series [6]: Metabolic stability in human liver microsomes. The format is in vitro ADME.
Series [7] has as its system MOLM‐13 human AML model. The series is described as follows: MOLM‐13 human AML xenograft model in mice. The format is in vivo, mouse. The following applies: for T/C ratio: end of the experiment.
The subject of series [8] is MOLM‐13 cells. The series is described as follows: Proliferation assay MOLM‐13. The format is cell-based. The conditions noted are these: Homo sapiens, MOLM-13, 96 h, read-out: MOLM‐13 IC50.

SMILES strings stand for the structures.

Sequence of CDK9/CycT1 (P50750 whole entry): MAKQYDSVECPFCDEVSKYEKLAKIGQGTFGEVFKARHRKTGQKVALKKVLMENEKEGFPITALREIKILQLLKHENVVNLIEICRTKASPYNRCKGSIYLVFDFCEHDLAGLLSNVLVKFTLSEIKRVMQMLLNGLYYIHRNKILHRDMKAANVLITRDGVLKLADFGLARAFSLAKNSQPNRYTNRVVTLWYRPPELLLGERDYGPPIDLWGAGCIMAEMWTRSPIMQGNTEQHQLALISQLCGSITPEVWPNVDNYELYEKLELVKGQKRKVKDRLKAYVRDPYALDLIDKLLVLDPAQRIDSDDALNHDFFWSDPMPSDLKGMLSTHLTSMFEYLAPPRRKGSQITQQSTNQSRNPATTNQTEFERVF
Sequence of CDK9/CycT1 (O60563 whole entry partner): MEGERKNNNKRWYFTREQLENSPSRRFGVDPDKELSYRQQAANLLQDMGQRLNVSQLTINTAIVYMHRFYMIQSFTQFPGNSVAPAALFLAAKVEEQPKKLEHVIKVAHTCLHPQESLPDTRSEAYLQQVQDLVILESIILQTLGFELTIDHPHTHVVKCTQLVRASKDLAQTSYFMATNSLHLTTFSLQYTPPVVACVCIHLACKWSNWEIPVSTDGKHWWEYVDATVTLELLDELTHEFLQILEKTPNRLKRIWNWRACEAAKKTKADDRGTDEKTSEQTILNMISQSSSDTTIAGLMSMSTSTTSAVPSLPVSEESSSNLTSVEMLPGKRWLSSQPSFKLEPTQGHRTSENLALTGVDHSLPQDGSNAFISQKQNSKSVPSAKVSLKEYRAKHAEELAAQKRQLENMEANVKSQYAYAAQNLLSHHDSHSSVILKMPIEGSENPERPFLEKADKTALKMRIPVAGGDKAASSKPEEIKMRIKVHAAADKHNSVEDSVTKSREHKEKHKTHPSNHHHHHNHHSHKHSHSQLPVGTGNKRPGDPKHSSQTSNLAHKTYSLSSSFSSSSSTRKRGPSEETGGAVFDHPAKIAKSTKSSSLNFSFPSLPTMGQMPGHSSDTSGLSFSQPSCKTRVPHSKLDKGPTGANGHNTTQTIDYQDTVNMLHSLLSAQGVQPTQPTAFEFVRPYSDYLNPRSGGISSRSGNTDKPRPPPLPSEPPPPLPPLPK

As for `COCc1ccccc1-c1ncnc(Nc2cccc(CS(N)(=O)=O)c2)n1` [Compound 20, 1‐[3‐({4‐[2‐(Methoxymethyl)phenyl]‐1,3,5‐triazin‐2‐yl}amino)phenyl]methanesulfonamide], the IC50 in series [1] was 1.7 µM. For the same compound, in series [2], the “Selectivity vs. CDK2, ratio of IC50 values” (from here on “Selectivity vs. CDK2, ratio”) is recorded as >11.

Turning to `COc1cc(F)ccc1-c1ncnc(Nc2ccc3c(c2)S(=O)(=O)CC3)n1` [Compound 7, N‐( 1,1‐Dioxido‐2,3‐dihydro‐1‐benzothien‐6‐yl)‐4‐(4‐fluoro‐2‐methoxyphenyl)‐1,3,5‐triazin‐2‐amine], the values for the IC50 in series [1] and in series [3] were 0.007 µM and 0.55 µM, respectively. The “Selectivity vs. CDK2, ratio” value in series [2] turned out to be 22.

Take `NS(=O)(=O)Cc1cccc(Nc2ncnc(-c3ccc(F)cc3OCc3ccccc3)n2)c1` [Compound 23, 1‐[3‐({4‐[2‐(Benzyloxy)‐4‐fluorophenyl]‐1,3,5‐triazin‐2‐yl}amino)phenyl]methanesulfonamide]: the IC50 in series [1] was determined as 0.004 µM; in series [3], 0.1 µM. Also, the “Selectivity vs. CDK2, ratio” value in series [2] was found to be 34. For the same compound, the figures for the recovery at 60 min in series [4], in series [5] and in series [6] were 0.2%, 0% and 0%, respectively.

The compound `COc1cnccc1-c1ncnc(Nc2cccc(CS(N)(=O)=O)c2)n1` [Compound 16, 1‐(3‐{[4‐(3‐Methoxypyridin‐4‐yl)‐1,3,5‐triazin‐2‐yl]amino}phenyl)methanesulfonamide] gave an IC50 in series [1] of 1.8 µM. Besides, the “Selectivity vs. CDK2, ratio” value in series [2] came out at 14.

As for `COc1cc(F)ccc1-c1ncnc(Nc2cccc(CCS(C)(=O)=O)c2)n1` [Compound 6, 4‐(4‐Fluoro‐2‐methoxyphenyl)‐N‐{3‐[2‐(methylsulfonyl)ethyl]phenyl}‐1,3,5‐triazin‐2‐amine], the results for the half-inhibitory concentration (IC50) in series [1] and in series [3] were 0.049 µM and 2.2 µM, respectively. For the same compound, the “Selectivity vs. CDK2, ratio” value in series [2] is recorded as 12.

`COc1cc(F)ccc1-c1ncnc(Nc2cccc(C(F)(F)S(C)(=O)=O)c2)n1` [Compound 13, N ‐{3‐[Difluoro(methylsulfonyl)methyl]phenyl}‐4‐(4‐fluoro‐2‐methoxyphenyl)‐1,3,5‐triazin‐2‐amine]: the IC50 in series [1] was 0.067 µM; in series [3] it was 4.2 µM. In series [2], the “Selectivity vs. CDK2, ratio” value is given as 19.

Turning to `COc1cc(F)ccc1-c1ncnc(Nc2cccc(CS(N)(=O)=O)c2)n1.Cl` [BAY‐958 hydrochloride, 1‐(3‐{[4‐(4‐Fluoro‐2‐methoxyphenyl)‐1,3,5‐triazin‐2‐yl]amino}phenyl)methanesulfonamide hydrochloride], in series [7] (30 mg kg^−1 daily oral), the T/C ratio is recorded as 0.16. For the same compound, the T/C ratio in series [7] (40 mg kg^−1 daily oral) is listed as 0.12. Besides, in series [7] (30 or 40 mg kg^−1 daily oral), the body weight change entry was “less than 10%” and the fatal toxicities entry is given as “no fatal toxicities”.

As for `COc1cc(F)ccc1-c1ncnc(Nc2cccc(CS(=O)(=O)C(C)(C)C)c2)n1` [Compound 9, N ‐{3‐[(tertButylsulfonyl)methyl]phenyl}‐4‐(4‐fluoro‐2‐methoxyphenyl)‐1,3,5‐triazin‐2‐amine], in series [2], the “Selectivity vs. CDK2, ratio” value is reported as 43. The half-inhibitory concentration (IC50) in series [3] was found to be 2.9 µM.

As to `COc1ccccc1-c1ncnc(Nc2cccc(CS(N)(=O)=O)c2)n1` [Compound 14, 1‐(3‐{[4‐(2‐Methoxyphenyl)‐1,3,5‐triazin‐2‐yl]amino}phenyl)methanesulfonamide], the IC50 is 0.023 µM in series [1] and 1.6 µM in series [3]. In addition, the “Selectivity vs. CDK2, ratio” value in series [2] is 62.

As for `CC(=O)Nc1cc(F)ccc1-c1ncnc(Nc2cccc(CS(N)(=O)=O)c2)n1` [Compound 21, N ‐[5‐Fluoro‐2‐(4‐{[3‐(sulfamoylmethyl)phenyl]amino}‐1,3,5‐triazin‐2‐yl)phenyl]acetamide], the “Selectivity vs. CDK2, ratio” value in series [2] is given as <1. For the same compound, the IC50 in series [3] turned out to be 3 µM.

For `COc1cc(Cl)ccc1-c1ncnc(Nc2cccc(CS(N)(=O)=O)c2)n1` [Compound 15, 1‐(3‐{[4‐(4‐Chloro‐2‐methoxyphenyl)‐1,3,5‐triazin‐2‐yl]amino}phenyl)methanesulfonamide], the results for the IC50 in series [1] and in series [3] were 0.027 µM and 3.8 µM, respectively. Further, the “Selectivity vs. CDK2, ratio” value in series [2] turned out to be 108.

Regarding `NS(=O)(=O)Cc1cccc(Nc2ncnc(-c3ccc(F)cc3C(F)(F)F)n2)c1` [Compound 22, 1‐[3‐({4‐[4‐Fluoro‐2‐(trifluoromethyl)phenyl]‐1,3,5‐triazin‐2‐yl}amino)phenyl]methanesulfonamide], the “Selectivity vs. CDK2, ratio” value in series [2] came to 1.

Turning to `NS(=O)(=O)Cc1cccc(Nc2ncnc(-c3ccc(F)cc3O)n2)c1` [Compound 17, 1‐(3‐{[4‐(4‐Fluoro‐2‐hydroxyphenyl)‐1,3,5‐triazin‐2‐yl]amino}phenyl)methanesulfonamide], the IC50 in series [1] is 0.13 µM; in series [3], 2.9 µM. In series [2], the “Selectivity vs. CDK2, ratio” value amounted to 6.

Turning to `NS(=O)(=O)Cc1cccc(Nc2ncnc(-c3ccc(F)cc3F)n2)c1` [Compound 18, 1‐(3‐{[4‐(2,4‐Difluorophenyl)‐1,3,5‐triazin‐2‐yl]amino}phenyl)methanesulfonamide], the IC50 in series [1] is 0.27 µM; in series [3], > 3 µM. In addition, the “Selectivity vs. CDK2, ratio” value in series [2] was determined as 16.

Consider `COc1cc(F)ccc1-c1ncnc(Nc2cccc(C(C)S(C)(=O)=O)c2)n1` (racemic) [Compound 10, (rac)‐4‐(4‐Fluoro‐2‐methoxyphenyl)‐N‐{3‐[1‐(methylsulfonyl)ethyl]phenyl}‐1,3,5‐triazin‐2‐amine], for which the IC50 amounted to 0.085 µM in series [1] and 3.2 µM in series [3]. Also, the “Selectivity vs. CDK2, ratio” value in series [2] is recorded as 21.

`COc1cc(F)ccc1-c1ncnc(Nc2cccc(C(C)(C)S(C)(=O)=O)c2)n1` [Compound 11, 4‐(4‐Fluoro‐2‐methoxyphenyl)‐N‐{3‐[2‐(methylsulfonyl)propan‐2‐yl]phenyl}‐1,3,5‐triazin‐2‐amine] came in with an IC50 in series [1] of 1 µM. In addition, in series [2], the “Selectivity vs. CDK2, ratio” value is listed as >20.

Consider `COc1cc(F)ccc1-c1ncnc(Nc2cccc(C(F)S(C)(=O)=O)c2)n1` (racemic) [Compound 12, (rac)‐4‐(4‐Fluoro‐2‐methoxyphenyl)‐N‐{3‐[fluoro(methylsulfonyl)methyl]phenyl}‐1,3,5‐triazin‐2‐amine], for which the IC50 in series [1] stood at 0.02 µM; in series [3] it was 0.89 µM. In addition, the “Selectivity vs. CDK2, ratio” value in series [2] was 13.

As to `COc1cc(F)ccc1-c1ncnc(Nc2ccc3c(c2)CS(=O)(=O)C3)n1` [Compound 8, N‐( 2,2‐Dioxido‐1,3‐dihydro‐2‐benzothien‐5‐yl)‐4‐(4‐fluoro‐2‐methoxyphenyl)‐1,3,5‐triazin‐2‐amine], the IC50 in series [1] was determined as 0.051 µM; in series [3], 11 µM. In addition, the “Selectivity vs. CDK2, ratio” value in series [2] was <1.

For `COc1cc(F)ccc1-c1ncnc(Nc2cccc(CS(C)(=O)=O)c2)n1` [Compound 4, 4‐(4‐Fluoro‐2‐methoxyphenyl)‐N‐{3‐[(methylsulfonyl)methyl]phenyl}‐1,3,5‐triazin‐2‐amine], the IC50 in series [8] is 0.13 µM.

In the case of `COc1cc(F)ccc1-c1ncnc(Nc2cccc(S(C)(=O)=O)c2)n1` [Compound 5, 4‐(4‐Fluoro‐2‐methoxyphenyl)‐N‐[3‐(methylsulfonyl)phenyl]‐1,3,5‐triazin‐2‐amine], the figures for the IC50 in series [1] and in series [3] were 0.032 µM and 1.34 µM, respectively. For the same compound, the “Selectivity vs. CDK2, ratio” value in series [2] turned out to be 19.

With `NS(=O)(=O)Cc1cccc(Nc2ncnc(-c3ccccc3OC(F)(F)F)n2)c1` [Compound 19, 1‐[3‐({4‐[2‐(Trifluoromethoxy)phenyl]‐1,3,5‐triazin‐2‐yl}amino)phenyl]methanesulfonamide], the IC50 in series [1] was 0.62 µM; in series [3], > 3 µM. Besides, the “Selectivity vs. CDK2, ratio” value in series [2] is 20.
